Experimental findings from publication PMC11073699, “Odorant receptors for floral- and plant-derived volatiles in the yellow fever mosquito, Aedes aegypti (Diptera: Culicidae)” (PLOS ONE, 2024) are described below.

By pEC50 is commonly meant the EC50 on a negative log10 scale, so that one unit is a factor of ten.

One assay addresses T1, AaegOR6 (Aedes aegypti, UniProt A0A1S4G757).
T1 sequence (A0A1S4G757 1-398): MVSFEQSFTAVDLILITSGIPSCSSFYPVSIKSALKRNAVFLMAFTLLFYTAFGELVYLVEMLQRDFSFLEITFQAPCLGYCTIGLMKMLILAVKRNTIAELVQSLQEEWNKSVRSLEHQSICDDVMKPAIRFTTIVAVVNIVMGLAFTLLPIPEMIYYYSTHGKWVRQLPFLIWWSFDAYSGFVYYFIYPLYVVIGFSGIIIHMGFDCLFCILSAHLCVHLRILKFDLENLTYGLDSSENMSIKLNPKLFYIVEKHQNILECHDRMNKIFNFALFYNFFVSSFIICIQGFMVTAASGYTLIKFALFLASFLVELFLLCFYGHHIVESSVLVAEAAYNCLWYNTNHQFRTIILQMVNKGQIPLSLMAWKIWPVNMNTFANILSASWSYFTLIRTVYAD
T1 sequence (Q178U6 1-478 partner): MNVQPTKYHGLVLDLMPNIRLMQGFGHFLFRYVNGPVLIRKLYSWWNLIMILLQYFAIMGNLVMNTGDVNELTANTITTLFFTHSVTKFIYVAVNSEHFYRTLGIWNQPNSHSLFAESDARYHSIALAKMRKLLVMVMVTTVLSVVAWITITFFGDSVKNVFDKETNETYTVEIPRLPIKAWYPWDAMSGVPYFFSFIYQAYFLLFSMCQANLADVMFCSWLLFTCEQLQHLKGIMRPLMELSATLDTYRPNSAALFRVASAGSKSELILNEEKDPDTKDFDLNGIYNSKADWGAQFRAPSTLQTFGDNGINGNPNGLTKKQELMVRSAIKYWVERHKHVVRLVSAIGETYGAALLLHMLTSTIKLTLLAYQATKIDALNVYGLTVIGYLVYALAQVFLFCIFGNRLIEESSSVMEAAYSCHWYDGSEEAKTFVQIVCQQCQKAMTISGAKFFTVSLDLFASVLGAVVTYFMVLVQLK
As to the kind of experiment: Two-electrode voltage clamp of Xenopus laevis oocytes expressing AaegOR6/Orco (blends, unitary compounds, concentration-response). The format is cell-based. Conditions: for Raw data (Responses in nA) Oocyte 1 / Raw data (Responses in nA) Oocyte 2 / Raw data (Responses in nA) Oocyte 3 / Raw data (Responses in nA) Oocyte 4 / Raw data (Responses in nA) Oocyte 5 / Raw data (Responses in nA) Oocyte 6 / Raw data (Responses in nA) Oocyte 7 / Raw data (Responses in nA) Oocyte 8: Indoles 2 unitary compounds. From the text: (§1) The coding regions of ten AaegOR genes of interest (S3 File) and AaegOrco were synthesized by Twist Bioscience (San Francisco, CA, USA) and cloned into the pENTR plasmid. The Gateway LR directional cloning system (Invitrogen Corp., Carlsbad, CA, USA) was utilized to subclone AaegOR coding regions into the pSP64t-RFA oocyte expression plasmid. Plasmids were purified using the GeneJet Plasmid Miniprep Kit (ThermoFisher Scientific, Waltham, MA, USA). Purified plasmids were sequenced in both directions to confirm coding regions.
(§2) Chemical compounds (S6 File) used in the deorphanization of AaegORs were purchased from Acros Organics (Morris, NJ, USA), Alfa Aesar (Ward Hill, MA, USA), and ThermoFisher Scientific (Waltham, MA, USA) at the highest purity available. Compounds were stored as 1M stocks in 100% DMSO. Serial dilutions of each compound were prepared in 10% DMSO and blended by chemical class.
(§3) pSP64t-RFA: AaegOR clones were linearized using Xbal, and cRNAs were synthesized using the mMESSAGE mMACHINE ® SP6 kit (Life Technologies, Carlsbad, CA, USA). Xenopus laevis stage V-VII oocytes purchased from Xenopus1 (Dexter, MI, USA) were stored at 18°C in Incubation medium (ND96 96 with 5% dialyzed horse serum, 50μg/mL gentamycin, 100μg/mL streptomycin, 100μg/mL penicillin, and 550μg/mL sodium pyruvate). 30nL of cRNA was injected into multiple oocytes using a microinjection syringe pump (World Precision Instruments, Sarasota, FL, USA) maintained at 18°C for 48–72 hrs. Odorant blends were perfused across individual oocytes for 10–15 seconds, held at a resting membrane potential of -80 mV using an OC-725C oocyte clamp (Warner Instruments, LLC, Hamden, CT, USA). Induced currents were measured indirectly using the two-electrode voltage clamp technique (TEVC). Following each stimulus, currents were allowed to return to baseline before further stimulation. Data was captured using the Digidata 1550 B digitizer and PClamp10 software (Molecular Devices, San Jose, CA, USA). Concentration-response curves were generated by perfusing unitary odorants over oocytes at increasing concentrations from [10^-3M] to [10^-9M]. Data were analyzed using GraphPad Prism 8 (GraphPad Software Inc., La Jolla, CA, USA). At least two biological replicates were conducted at each concentration and for each compound. Data for at least seven oocytes responding to each compound was analyzed (S7 File).
A general note: In two-electrode clamp one electrode senses voltage and the other passes current.

The next assay concerns the target T2, AaegOR71 (Aedes aegypti, UniProt A0A3S7SHD4).
T2 sequence (A0A3S7SHD4 1-415): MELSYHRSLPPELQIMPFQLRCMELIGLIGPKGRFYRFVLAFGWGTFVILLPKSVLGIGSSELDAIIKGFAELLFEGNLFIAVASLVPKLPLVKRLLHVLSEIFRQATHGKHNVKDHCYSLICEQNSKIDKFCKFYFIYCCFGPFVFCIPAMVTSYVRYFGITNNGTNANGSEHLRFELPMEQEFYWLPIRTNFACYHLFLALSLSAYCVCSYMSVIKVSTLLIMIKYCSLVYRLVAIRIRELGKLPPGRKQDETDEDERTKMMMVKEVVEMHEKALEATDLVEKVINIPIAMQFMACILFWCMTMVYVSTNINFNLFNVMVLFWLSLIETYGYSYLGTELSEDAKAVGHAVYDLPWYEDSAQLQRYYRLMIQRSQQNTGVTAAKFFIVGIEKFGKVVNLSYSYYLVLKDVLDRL
T2 sequence (Q178U6 1-478 partner): T1 sequence (Q178U6 1-478 partner)
As to the kind of experiment: Two-electrode voltage clamp of Xenopus laevis oocytes expressing AaegOR71/Orco (blends, unitary compounds, concentration-response). It counts as cell-based. As to conditions: Indoles 2 unitary compounds.
From the text: as §1, §2, §3

pEC50: −log10 of the molar value. Values joined by “and” are separate entries in the source; they are usually repeats but may differ in a detail not shown here. Identical values can stand only once.

Turning to `O=C(O)Cc1c[nH]c2ccccc12` [1H-Indole-3-acetic acid], on AaegOR6, the “Raw data (Responses in nA) Oocyte 1” value was found to be 10.0 nA, the “Raw data (Responses in nA) Oocyte 2” value is on record as 10.0 nA, the “Raw data (Responses in nA) Oocyte 3” value amounted to 10.0 nA and the “Raw data (Responses in nA) Oocyte 4” value is given as 0.0 nA. Besides, at AaegOR6, the “Raw data (Responses in nA) Oocyte 5” value is given as 10.0 nA, the “Raw data (Responses in nA) Oocyte 6” value came to 0.0 nA, the “Raw data (Responses in nA) Oocyte 7” value turned out to be 0.0 nA and the “Raw data (Responses in nA) Oocyte 8” value came to 0.0 nA. Besides, at AaegOR71, the “Raw Data (Response in nA) Oocyte 1” value came to 0 nA, the “Raw Data (Response in nA) Oocyte 2” value came out at 20 nA, the “Raw Data (Response in nA) Oocyte 3” value is reported as 0 nA and the “Raw Data (Response in nA) Oocyte 4” value stood at 15 nA. On AaegOR71, the “Raw Data (Response in nA) Oocyte 5” value is listed as 20 nA, the “Raw Data (Response in nA) Oocyte 6” value was determined as 60 nA, the “Raw Data (Response in nA) Oocyte 7” value was 15 nA and the “Raw Data (Response in nA) Oocyte 8” value is given as 60 nA.
`OCc1c[nH]c2ccccc12` [3-Indolemethanol]: on AaegOR6, the “Raw data (Responses in nA) Oocyte 1” value is 0.0 nA, the “Raw data (Responses in nA) Oocyte 2” value was 0.0 nA, the “Raw data (Responses in nA) Oocyte 3” value is listed as 10.0 nA and the “Raw data (Responses in nA) Oocyte 4” value is recorded as 0.0 nA. For the same molecule, on AaegOR6, the “Raw data (Responses in nA) Oocyte 5” value was 0.0 nA, the “Raw data (Responses in nA) Oocyte 6” value was 0.0 nA, the “Raw data (Responses in nA) Oocyte 7” value is 0.0 nA and the “Raw data (Responses in nA) Oocyte 8” value is listed as 0.0 nA. For the same molecule, on AaegOR71, the “Raw Data (Response in nA) Oocyte 1” value is 240 nA, the “Raw Data (Response in nA) Oocyte 2” value is listed as 0 nA, the “Raw Data (Response in nA) Oocyte 3” value is 0 nA and the “Raw Data (Response in nA) Oocyte 4” value is recorded as 0 nA. Besides, at AaegOR71, the “Raw Data (Response in nA) Oocyte 5” value worked out at 0 nA, the “Raw Data (Response in nA) Oocyte 6” value worked out at 0 nA, the “Raw Data (Response in nA) Oocyte 7” value is listed as 0 nA and the “Raw Data (Response in nA) Oocyte 8” value was 0 nA.
With `Oc1cccc2[nH]ccc12` [4-Hydroxyindole], at AaegOR6, the “Raw data (Responses in nA) Oocyte 1” value came to 0.0 nA, the “Raw data (Responses in nA) Oocyte 2” value is on record as 0.0 nA, the “Raw data (Responses in nA) Oocyte 3” value is 5.0 nA and the “Raw data (Responses in nA) Oocyte 4” value stood at 0.0 nA. Also, at AaegOR6, the “Raw data (Responses in nA) Oocyte 5” value turned out to be 0.0 nA, the “Raw data (Responses in nA) Oocyte 6” value is recorded as 0.0 nA, the “Raw data (Responses in nA) Oocyte 7” value worked out at 0.0 nA and the “Raw data (Responses in nA) Oocyte 8” value turned out to be 0.0 nA. In addition, at AaegOR71, the “Raw Data (Response in nA) Oocyte 1” value is given as 20 nA, the “Raw Data (Response in nA) Oocyte 2” value came out at 30 nA, the “Raw Data (Response in nA) Oocyte 3” value turned out to be 0 nA and the “Raw Data (Response in nA) Oocyte 4” value is 30 nA. Besides, at AaegOR71, the “Raw Data (Response in nA) Oocyte 5” value stood at 0 nA, the “Raw Data (Response in nA) Oocyte 6” value turned out to be 30 nA, the “Raw Data (Response in nA) Oocyte 7” value is 30 nA and the “Raw Data (Response in nA) Oocyte 8” value stood at 10 nA.
For `O=C1CCOc2ccccc21` [4-chromanone, 4-Chromanone], on AaegOR6 (AaegOR6/Orco expressing oocytes, TEVC, concentration-response of normalized current), the negative-log EC50 (pEC50) is ~5.16 and 5.16. Further, at AaegOR6, the “Raw data (Responses in nA) Oocyte 1” value was 70.0 nA, the “Raw data (Responses in nA) Oocyte 2” value was 50.0 nA, the “Raw data (Responses in nA) Oocyte 3” value came out at 90.0 nA and the “Raw data (Responses in nA) Oocyte 4” value was determined as 170.0 nA. In addition, on AaegOR6, the “Raw data (Responses in nA) Oocyte 5” value came out at 70.0 nA, the “Raw data (Responses in nA) Oocyte 6” value turned out to be 650.0 nA, the “Raw data (Responses in nA) Oocyte 7” value amounted to 510.0 nA and the “Raw data (Responses in nA) Oocyte 8” value was found to be 510.0 nA. Further, on AaegOR71, the “Raw Data (Response in nA) Oocyte 1” value turned out to be 0 nA, the “Raw Data (Response in nA) Oocyte 2” value was 310 nA, the “Raw Data (Response in nA) Oocyte 3” value is on record as 15 nA and the “Raw Data (Response in nA) Oocyte 4” value is reported as 140 nA. For the same molecule, at AaegOR71, the “Raw Data (Response in nA) Oocyte 5” value was found to be 15 nA, the “Raw Data (Response in nA) Oocyte 6” value came to 60 nA, the “Raw Data (Response in nA) Oocyte 7” value is reported as 30 nA and the “Raw Data (Response in nA) Oocyte 8” value is 20 nA.
